The subject of one data set is Rattus norvegicus. The data set is described as follows: Hepatic clearance after intravenous administration was evaluated in rat. The settings on record: in vivo. The format is ADME, organism-based, Liver.
In data set [1] the target is T1, Cysteinyl leukotriene receptor 1 (Cavia porcellus, UniProt Q2NNR5).
T1 sequence (Q2NNR5 whole entry): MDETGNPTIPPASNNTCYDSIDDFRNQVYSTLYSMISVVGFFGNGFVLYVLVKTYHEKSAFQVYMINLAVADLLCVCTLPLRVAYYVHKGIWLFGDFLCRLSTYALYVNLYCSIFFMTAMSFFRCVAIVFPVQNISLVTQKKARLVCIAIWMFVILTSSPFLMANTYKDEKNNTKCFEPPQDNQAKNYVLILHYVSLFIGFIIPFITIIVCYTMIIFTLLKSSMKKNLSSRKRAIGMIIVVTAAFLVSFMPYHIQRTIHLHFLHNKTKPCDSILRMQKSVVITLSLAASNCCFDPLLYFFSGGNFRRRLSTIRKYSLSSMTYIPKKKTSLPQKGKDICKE
The data set can be described thus: Antagonism of Cysteinyl leukotriene receptor 1 from guinea pig lung membranes. The format is functional, tissue-based.

Data set [2] can be described thus: Half-life was evaluated in plasma of rat. Type of data set: ADME, organism-based.
The subject of data set [3] is Cavia porcellus. The data set can be described thus: Compound was tested for its ability to block antigen induced airway obstruction in guinea pig at dose 1 mg/kg at 1 hr. The format is functional.
A short description of data set [4]: Volume of distribution after intravenous administration was evaluated in rat. The format is ADME, organism-based. The settings on record: in vivo, read-out: Vdss.
The species named for another data set is Homo sapiens. The data set is described as follows: Compound was tested for its ability to inhibit calcium influx in human U937 cells. Type of data set: functional, cell-based. The settings on record: U-937.
Data set [5] relates to Cavia porcellus. The data set is described as follows: Compound was tested for its ability to block antigen induced airway obstruction in guinea pig at dose 1 mg/kg at 2 hr. The format is functional.

For the compound `COc1ccc(NS(=O)(=O)C(F)(F)F)cc1C[C@H]1[C@@H](O)c2cc(OCc3ccc4ccc(Cl)cc4n3)ccc2OC1(C)C`, the Clp in the data set on Rattus norvegicus was 0.402 L/h/kg. Besides, affinity in data set [1] was put at a Ki of 4 nM. Besides, the half-life (as a rule, the time in which the quantity being followed falls by half) in data set [2] was 3.6 h. Moreover, testing at 1 mg/kg in the data set on Cavia porcellus [3] gave an inhibition in vivo of 57.9%. Besides, the Vd in data set [4] came out at 1.6 L/kg. Besides, the IC50 – broadly, the concentration that inhibits the measured activity by half – in the data set filed under Homo sapiens stood at 0.5 nM.

As for `CC1(C)Oc2ccc(OCc3nc4cc(F)c(F)cc4s3)cc2[C@H](O)[C@@H]1Cc1cc(NS(=O)(=O)C(F)(F)F)ccc1Cl`, the affinity in data set [1] corresponds to a Ki of 4 nM. In the data set filed under Homo sapiens, the IC50 is 17 nM.

Regarding `O=C(Nc1cccc2c(=O)cc(-c3nnn[nH]3)oc12)c1ccc(OCCCCc2ccccc2)cc1`, 1 mg/kg produced 50.1% inhibition in vivo with Cavia porcellus [3]. Moreover, in the data set listed under Homo sapiens, the IC50 was 1 nM.

With `C[C@H]1Oc2ccc(OCc3nc4cc(F)ccc4s3)cc2[C@H](O)[C@@H]1Cc1cccc(NS(=O)(=O)C(F)(F)F)c1`, in the data set on Cavia porcellus [3], the inhibition in vivo (in general, the change of the read-out against control, counted positive when it falls) at 1 mg/kg came out at 66.5%. The half-maximal inhibitory concentration (IC50) in the data set filed under Homo sapiens is 8 nM.

For the compound `CC1(C)Oc2ccc(OCc3nc4cc(F)c(F)cc4s3)cc2[C@H](O)[C@@H]1Cc1cccc(NS(=O)(=O)C(F)(F)F)c1`, the Ki (in general, a measure of affinity in units of concentration, obtained from inhibition or displacement) in data set [1] stood at 7 nM. The same compound showed an inhibition in vivo at 1 mg/kg in the data set on Cavia porcellus [5] of 45.8%. The 50% inhibitory concentration (IC50) in the data set filed under Homo sapiens stood at 2 nM.

Compound `COc1ccc(NS(=O)(=O)C(F)(F)F)cc1C[C@H]1[C@@H](O)c2cc(/C=C/c3ccc4ccc(Cl)cc4n3)ccc2OC1(C)C` returned a Ki in data set [1] of 5 nM. In addition, the inhibition in vivo at 1 mg/kg with Cavia porcellus [5] amounted to 40.8%. Also, in the data set filed under Homo sapiens, the IC50 turned out to be 0.2 nM.

`COc1ccc(NS(=O)(=O)C(F)(F)F)cc1C[C@H]1[C@@H](O)c2cc(OCc3nc4cc(F)c(F)cc4s3)ccc2OC1(C)C` registered a Clp with Rattus norvegicus of 0.96 L/h/kg. Further, the inhibition constant Ki in data set [1] was 2 nM. This compound also had a half-life in data set [2] of 3.9 h. Moreover, in the data set with Cavia porcellus [5], the inhibition in vivo at 1 mg/kg was determined as 37.8%. The Vd in data set [4] is 3.8 L/kg. Moreover, the IC50 in the data set listed under Homo sapiens is 0.3 nM.

Take `O=C(O)c1cccc(C[C@@H]2COc3ccc(OCc4nc5cc(F)ccc5s4)cc3[C@@H]2O)c1`: in the data set on Rattus norvegicus, the Clp is 0.198 L/h/kg. Also, affinity in data set [1] was put at a Ki of 14 nM. Also, the half-life in data set [2] was 1.3 h. Also, in the data set with Cavia porcellus [5], at 1 mg/kg the inhibition in vivo was 56%. Moreover, the Vd in data set [4] stood at 0.4 L/kg. Moreover, the IC50 in the data set listed under Homo sapiens was determined as 310 nM.

In turn, `COc1cc(C(=O)NS(=O)(=O)c2ccccc2C)ccc1Cc1cn(C)c2ccc(NC(=O)OC3CCCC3)cc12` [ZAFIRLUKAST] gave an inhibition in vivo at 1 mg/kg in the data set with Cavia porcellus [5] of 51.6%. The 50% inhibitory concentration (IC50) in the data set filed under Homo sapiens was 1 nM.
